# Results: patent US20260053931A1, “MDM2 TARGETING PROTACS” (THE WISTAR INSTITUTE OF ANATOMY AND BIOLOGY, priority 2023, published 2026)
# pIC50: −log10 of the molar value.
# What was measured:
# OVCAR3 = assay: Cell death of other cancer cell lines: OVCAR3; assay type: cell-based; details: Homo sapiens, OVCAR-3; OVCAR3, Ovarian
# Protocol: (§1) The PROTACs prepared herein were tested for their use in other cancer cell lines to determine activity in multiple different types of cancer.
# [1] = system: MDA-MB-231 and MDA-MB-436 cells; assay: Colony formation assay; assay type: cell-based, human; parameters: unit of the concentration uncertain; details: 12 days
# Protocol: (§2) FIGS. 21A-21E show the apoptosis induction of p53-inactivated TNBC cells in 2D and 3D cultures by the MDM2-PROTAC YX-02-030. A-B. Colony formation assays (A. Triplicate, 12 days) and mammosphere formation (B. Triplicate 72 hrs) of MDA-MB-231 and MDA-MB-436 cells in the presence of the indicated compounds or DMSO control (−); representative pictures shown. C-E. Formed mammospheres of MDA-MB-231 and MDA-MB-436 cells were treated with the compounds indicated or DMSO control (−), and area (C. n=10 mammospheres, relative to pre-treatment area, 72 hr), real-time imaging (IncuCyte) and quantification of Caspase-3/7 activity (D. n=4-5 wells/compound), and survival/ATP assays (E. Quadruplicate, 72 hr) were performed; representative images shown; scale bar 300 m. Mean±SEM (A-C and E). For A, *P<0.0001 and **P<0.0001, comparing 1 M and 2 M PROTAC, respectively, to control compounds and DMSO vehicle control. For B, *P<0.0046, **P<0.0001, and ***P<0.0001, comparing 0.5 M, 1 M, and 2 M PROTAC, respectively, to control compounds and DMSO vehicle control. For C, *P<0.0001 and **P<0.0001, comparing 2 M and 4 M/6 M PROTAC, respectively, to control compounds and DMSO vehicle control. […]
# The ability of the PROTAC-mediated degradation of MDM2 to alter the clonogenic potential of p53-inactivated TNBC cells was evaluated by performing colony formation assays with MDA-MB-231 and MDA-MB-436 cells. […]
# Mdm2 = Mdm2 (Homo sapiens, UniProt Q00987); assay: Western blot of TNBC cells treated with PROTAC; assay type: cell-based; parameters: endogenous in cells; MDA-MB-231 (A9)
# Excerpt: A. Chemical structure of MDM2-PROTAC. B-C. MDM2:p53 and MDM2:VHL-HIF1α peptide binding inhibition determined by homogeneous time-resolved fluorescence (HTRF, triplicate, mean±SEM, B) and surface plasmon resonance (SPR, triplicate, mean±SD, C. Binding assays by the indicated compounds. Graphical data is representative of 3 separate experiments. D. AlphaScreen of ternary complex using GST-MDM2 and HIS-VHL; mean±SD. E-F. Western blot analysis for the proteins indicated following a dose-titration (E, 16 hr) and time course (F, 6 μM) with the PROTAC or vehicle control (DMSO, −) in MDA-MB-231 (p53-mutant) and MDA-MB-436 (p53-delete) cells. G-K. Western blot analysis for the proteins indicated following treatment with the MDM2-PROTAC and/or the neddylation activating enzyme inhibitor MLN4924 G.
# PROTACs work by forming a ternary complex consisting of the target protein, the PROTAC, and the recruited E3 ubiquitin ligase-E2 complex, causing ubiquitination of the target protein, marking it for 26S proteasome-mediated degradation (Nalawansha & Crews, 2020). FIG. 19D confirms that the PROTAC forms a […] complex. […] Similarly, when the proteasome was inhibited with MG132, MDM2 protein levels were maintained despite YX-02-030 exposure (FIG. 19H). Therefore, YX-02-030 targets MDM2 protein for 26S proteasome-mediated degradation in TNBC cells and this requires the ubiquitin cascade.
# MDA-MB-436 mammospheres = assay: Area of formed mammospheres, MDA-MB-436; assay type: cell-based, human; details: MDA-MB-436, 3-fold lower concentration than the MDM2 inhibitors, 72 hr
# Protocol: as §2
# These were then evaluated in 3D culture as to when the YX-02-030 was effective at preventing TNBC cell mammosphere formation and eliminating already formed mammospheres. […]
# SCC-25 = assay: Cell death of other cancer cell lines: SCC-25; assay type: cell-based; details: Homo sapiens; SCC-25, Head & Neck
# Protocol: as §1
# DE1069 = assay: Cell death of other cancer cell lines: DE1069; assay type: cell-based; details: DE1069, Sarcoma, Mouse
# Protocol: as §1
# [2] = system: Mdm2-/-p53-/- sarcoma cells; assay: Murine Mdm2-/-p53-/- sarcoma cells, MTT; assay type: cell-based, mouse; details: MTT assay, 48 hrs
# Excerpt: A-B. Murine Mdm2+/+p53-null sarcoma cells treated with Mdm2 PROTAC (YX-02-030), control YX-02-023 (−), or vehicle (DMSO). A. Western blots after 24 hrs (cleaved caspase 3, CC3. Mdm2^−/−p53^−/− fibroblasts were a control for the Western blot). B. Dose response curve (MTT assay, 48 hrs). C. Dose response curves of murine Mdm2^−/−p53^−/− sarcoma cells treated with Mdm2 PROTAC (YX-02-030), negative controls (−), a Bcl2/Bclx/Bclw inhibitor (+), or vehicle control (MTT assay, quadruplicate, 48 hrs- MTT assay, B-C graphed relative to DMSO).
# Cal27 = assay: Cell death of other cancer cell lines: Cal27; assay type: cell-based; details: Homo sapiens, CAL-27; Cal27, Head & Neck
# Protocol: as §1
# Sequence of Mdm2 (Q00987 whole entry): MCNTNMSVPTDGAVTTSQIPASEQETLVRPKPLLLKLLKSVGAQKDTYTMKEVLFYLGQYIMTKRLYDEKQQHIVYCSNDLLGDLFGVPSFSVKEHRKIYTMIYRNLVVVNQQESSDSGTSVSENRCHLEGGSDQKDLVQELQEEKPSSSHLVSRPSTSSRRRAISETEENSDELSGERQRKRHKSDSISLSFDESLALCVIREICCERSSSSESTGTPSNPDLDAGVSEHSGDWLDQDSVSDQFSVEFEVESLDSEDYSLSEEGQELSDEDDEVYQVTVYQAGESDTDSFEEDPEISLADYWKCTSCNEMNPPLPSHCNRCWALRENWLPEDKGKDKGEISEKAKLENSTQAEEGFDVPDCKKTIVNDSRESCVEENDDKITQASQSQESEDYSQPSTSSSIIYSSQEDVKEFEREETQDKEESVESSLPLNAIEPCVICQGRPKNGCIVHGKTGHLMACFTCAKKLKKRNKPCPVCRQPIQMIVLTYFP
structure (smiles),measurement,setting,value
CCOc1cc(C(C)(C)C)ccc1C1=N[C@](C)(c2ccc(Cl)cc2)[C@](C)(c2ccc(Cl)cc2)N1C(=O)N1CCN(CC(=O)NCCOCCOCCOCC(=O)N[C@H](C(=O)N2C[C@H](O)C[C@H]2C(=O)NCc2ccc(-c3scnc3C)cc2)C(C)(C)C)CC1 (racemic) [YX-02-030],pIC50,OVCAR3,5.35
same,colony numbers,[1]; 1 (unit uncertain),significant reduction in colony numbers
same,colonies formed,[1]; 2 (unit uncertain),< 2 colonies
same,MDM2 protein level,"Mdm2; MDA-MB-231 (mutated p53) and MDA-MB-436 (deleted p53), dose titration 16 hr, time course 6 μM",loss of MDM2 protein
same,VHL protein level,Mdm2; Western blot,not degraded
same,reduction of mammosphere area,MDA-MB-436 mammospheres,43.8%
same,pIC50,SCC-25,5.51
same,pIC50,DE1069,5.21
same,response of Mdm2-/-p53-/- sarcoma cells,[2],not responsive
same,pIC50,Cal27,5.64
